The values below come from ChEMBL document CHEMBL1201862, “PubChem BioAssay data set” (2004).

Among the test systems are 786-0; ACHN; BT-549; CCRF-CEM; EKVX; HCT-15; HL-60; MCF7; MDA-MB-435; MOLT-4; OVCAR-5; PC-3; SF-268; SF-539; SK-MEL-2; SNB-75; U-251; A498; CAKI-1; HOP-62.
What all share (experiment): NCI tumour cell line growth inhibition, 48 h

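Test compounds were applied to cells in 96-well plates for 48 hours at 5 doses. GI50 marks 50% less growth.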 Active and inactive are the calls of the source. Rule as the data show it: active = GI50 up to about 1.1 µM and inactive = higher. Where a SMILES comes first, the peptide text is derived from it. [ ]: non-standard residue; d: D form. The star is where a group is joined. Phe(4-NO2) = N[CH](Cc1ccc([N+](=O)[O-])cc1)C(=O)O; Boc = CC(C)(C)OC(=O)*

For `CC#CCCCC1(C)CCCNC1=S` (stereo not drawn), the GI50 was > 10 µM (inactive) with 786-0; > 10 µM (inactive) in the assay on ACHN; > 10 µM (inactive) in the assay on BT-549; > 10 µM (inactive) in the assay on CCRF-CEM; > 10 µM (inactive) with EKVX; above 10 µM with HCT-15. In addition, the GI50 in the assay on HL-60, in the assay on MCF7, in the assay with MDA-MB-435, in the assay on MOLT-4, with OVCAR-5 and with PC-3 was > 10 µM (inactive) each time. Also, the GI50 in the assay on SF-268, in the assay on SF-539, in the assay with SK-MEL-2, in the assay on SNB-75 and with U-251 was > 10 µM (inactive) each time.

On to `c1ccc2sc(C3(N4CCCCC4)CCCC3)cc2c1`, for which the GI50 is 9.93 µM (inactive) in the assay on 786-0; 12.7 µM (inactive) in the assay on A498; 8.65 µM (inactive) in the assay on ACHN; 12.6 µM (inactive) in the assay with BT-549; 18.1 µM (inactive) in the assay on CAKI-1; 3.5 µM (inactive) in the assay with CCRF-CEM. Moreover, the GI50 with EKVX is 7.14 µM (inactive); with HCT-15, 5.92 µM; in the assay with HL-60, 4.69 µM (inactive); in the assay on HOP-62, 15 µM (inactive); in the assay with MCF7 it was 8.02 µM (inactive); in the assay on MDA-MB-435 it was 14.9 µM (inactive). For the same molecule, the GI50 was 3.52 µM (inactive) with MOLT-4; 11 µM (inactive) in the assay on OVCAR-5; 11.4 µM (inactive) in the assay on SF-268; 16.1 µM (inactive) with SF-539; 15.9 µM (inactive) in the assay with SNB-75.

`CSC1=Nc2ccccc2-c2nc(-c3ccccc3)cc(-c3ccccc3)c2C1`: the GI50 in the assay with 786-0 is 10.2 µM (inactive); with A498, 9.93 µM (inactive); in the assay with ACHN, 12.4 µM (inactive); with BT-549, 39.7 µM (inactive); in the assay with CAKI-1 it was 12.4 µM (inactive); with CCRF-CEM, > 100 µM (inactive). Moreover, the GI50 is 23.1 µM (inactive) in the assay on EKVX; 31.6 µM with HCT-15; > 100 µM (inactive) with HL-60; 19.8 µM (inactive) in the assay on HOP-62; 22.2 µM (inactive) with MDA-MB-435; > 100 µM (inactive) with MOLT-4. The GI50 was 33 µM (inactive) in the assay on OVCAR-5; 21.4 µM (inactive) in the assay on PC-3; 19.2 µM (inactive) in the assay with SF-539; 4.26 µM (inactive) with SNB-75; 7.03 µM (inactive) with U-251.

For the molecule `CC1(C)C2CCC(O)(C2)C1N` (stereo not drawn), the GI50 in the assay with 786-0, in the assay on ACHN, in the assay with BT-549, with CAKI-1, with CCRF-CEM and in the assay with EKVX was > 100 µM (inactive) throughout. Also, the GI50 in the assay with HCT-15 was above 100 µM; with HOP-62, > 100 µM (inactive); in the assay on MCF7, > 100 µM (inactive); with MDA-MB-435 it was > 100 µM (inactive); in the assay with MOLT-4 it was > 100 µM (inactive); in the assay on OVCAR-5, > 100 µM (inactive). The GI50 in the assay with PC-3, with SF-268, in the assay on SF-539, in the assay with SK-MEL-2, in the assay with SNB-75 and in the assay with U-251 was > 100 µM (inactive) throughout.

Regarding `CC1C(=O)OCC2=CCN3CCC(OC(=O)C(C)C1(C)O)C23` (stereo not drawn), the GI50 in the assay with 786-0, in the assay with A498, with ACHN, in the assay on BT-549, with CAKI-1 and in the assay on CCRF-CEM was > 100 µM (inactive) each time. The GI50 in the assay on EKVX was > 100 µM (inactive); in the assay on HCT-15, above 100 µM; with HL-60, > 100 µM (inactive); in the assay with MDA-MB-435 it was > 100 µM (inactive); with MOLT-4, > 100 µM (inactive); in the assay with OVCAR-5, > 100 µM (inactive). The GI50 in the assay on PC-3, in the assay with SF-268, in the assay with SF-539, in the assay on SK-MEL-2, in the assay on SNB-75 and in the assay on U-251 was > 100 µM (inactive) throughout.

With `CCOC(=O)CCC(NC(=O)C(Cc1ccc([N+](=O)[O-])cc1)NC(=O)OC(C)(C)C)C(=O)NC(CCC(=O)OCC)C(=O)OCC` (stereo not drawn) (Boc-[Phe(4-NO2)]-Glu(OEt)-Glu(OEt)-OEt; configuration not given here), the GI50 with 786-0 was 16.8 µM (inactive); in the assay on A498, 19.5 µM (inactive); in the assay with ACHN, 17.4 µM (inactive); in the assay on BT-549, 22.2 µM (inactive); in the assay with EKVX, > 10 µM (inactive); in the assay on HCT-15, 36 µM. Besides, the GI50 was 14.9 µM (inactive) in the assay on HL-60; 24.2 µM (inactive) with HOP-62; 28 µM (inactive) in the assay with MCF7; 2.73 µM (inactive) in the assay with MOLT-4; 20.7 µM (inactive) in the assay with OVCAR-5; 19.7 µM (inactive) in the assay on PC-3. Besides, the GI50 with SK-MEL-2 was 13.2 µM (inactive); with SNB-75 it was 15.6 µM (inactive); in the assay with U-251, 19.8 µM (inactive).

`Nc1ccc(S(=O)(=O)Nc2cnc3ccccc3n2)cc1` [SULFAQUINOXALINE]: the GI50 in the assay on 786-0, in the assay on A498, with ACHN, in the assay with BT-549, with CAKI-1 and in the assay with CCRF-CEM was > 100 µM (inactive) each time. Further, the GI50 was > 100 µM (inactive) in the assay with EKVX; above 100 µM with HCT-15; > 100 µM (inactive) in the assay with HL-60; > 100 µM (inactive) with HOP-62; > 100 µM (inactive) in the assay on MDA-MB-435; > 100 µM (inactive) in the assay on MOLT-4. Moreover, the GI50 is > 100 µM (inactive) in the assay with OVCAR-5; > 100 µM (inactive) in the assay with PC-3; > 87.9 µM (inactive) with SF-268; > 100 µM (inactive) in the assay on SF-539; > 52.1 µM (inactive) in the assay on SK-MEL-2; 26.7 µM (inactive) in the assay with SNB-75. For the same molecule, the GI50 in the assay with U-251 was > 100 µM (inactive).

For `O=C1CCC(N2C(=O)c3ccccc3C2=O)C(=O)N1` (stereo not drawn) [THALIDOMIDE], the GI50 with 786-0, with ACHN, with BT-549, in the assay on CAKI-1, with CCRF-CEM and with EKVX was > 100 µM (inactive) in each case. Moreover, the GI50 is above 100 µM in the assay with HCT-15; > 100 µM (inactive) with HOP-62; > 100 µM (inactive) with MCF7; > 100 µM (inactive) with MDA-MB-435; > 100 µM (inactive) in the assay on MOLT-4; > 100 µM (inactive) in the assay on OVCAR-5. Besides, the GI50 in the assay with PC-3, with SF-268, with SK-MEL-2, with SNB-75 and in the assay with U-251 was > 100 µM (inactive) throughout.
